T/C data for 20 compounds are collected here from PubChem BioAssay AID236 (DTP/NCI, 2004).

For the test, the system named is AK4 lymphoid leukemia ip, C3AKF1 mice, survival. Kind of test: NCI In Vivo Anticancer Drug Screen. Data for tumor model AK4 Lymphoid Leukemia (intraperitoneal) in C3AKF1 (CHKRF1) mice. The settings on record: endpoint: median survival time, higher = longer survival. The method, then: The antitumor activity of compounds was measured in mice bearing transplantable tumors. Survival or tumor size were measured and the results are expressed as the measurement made in the treated group (T) divided by the measurement made in the vehicle treated control group (C). The tumor model used in this assay is AK4 Lymphoid Leukemia (intraperitoneal) in C3AKF1 (CHKRF1) mice

[1] abbreviates: dose: 62.5 mg/kg/injection, schedule: Q01DX010 (ip), vehicle: saline.
Setting [2] is: dose: 125.0 mg/kg/injection, schedule: Q01DX010 (ip), vehicle: saline.
Setting [3] is: dose: 250.0 mg/kg/injection, schedule: Q01DX010 (ip), vehicle: saline.
[4] abbreviates: dose: 500.0 mg/kg/injection, schedule: Q01DX010 (ip), vehicle: saline.
Where [5] appears, read: dose: 50.0 mg/kg/injection, schedule: Q01DX010 (ip), vehicle: saline.
Setting [6] is: dose: 100.0 mg/kg/injection, schedule: Q01DX010 (ip), vehicle: saline.
[7] abbreviates: dose: 2.5 mg/kg/injection, schedule: Q01DX010 (ip), vehicle: saline.
Where [8] appears, read: dose: 5.0 mg/kg/injection, schedule: Q01DX010 (ip), vehicle: saline.
The mark [9] stands for this setting: dose: 1000.0 mg/kg/injection, schedule: Q01DX010 (ip), vehicle: saline.
[10] abbreviates: dose: 25.0 mg/kg/injection, schedule: Q01DX010 (ip), vehicle: saline.
The mark [11] stands for this setting: dose: 3.13 mg/kg/injection, schedule: Q01DX010 (ip), vehicle: saline.
Setting [12] is: dose: 6.25 mg/kg/injection, schedule: Q01DX010 (ip), vehicle: saline.
[13] abbreviates: dose: 12.5 mg/kg/injection, schedule: Q01DX010 (ip), vehicle: saline.
Where [14] appears, read: dose: 15.0 mg/kg/injection, schedule: Q01DX010 (ip), vehicle: saline.
The mark [15] stands for this setting: dose: 30.0 mg/kg/injection, schedule: Q01DX010 (ip), vehicle: saline.
The mark [16] stands for this setting: dose: 60.0 mg/kg/injection, schedule: Q01DX010 (ip), vehicle: saline.
The mark [17] stands for this setting: dose: 120.0 mg/kg/injection, schedule: Q01DX010 (ip), vehicle: saline.
[18] abbreviates: dose: 2.0 mg/kg/injection, schedule: Q01DX010 (ip), vehicle: saline.
[19] abbreviates: dose: 8.0 mg/kg/injection, schedule: Q01DX010 (ip), vehicle: saline.
[20] abbreviates: dose: 16.0 mg/kg/injection, schedule: Q01DX010 (ip), vehicle: saline.

Values joined by “and” are separate entries in the source; they are usually repeats but may differ in a detail not shown here. Equal entries are not always repeated. Toxic doses and inconclusive results are not listed. Starred links: 1 amine or outer side, 2 acyl side, 3 side chain; linkers in the order of their positions; H or OH if unused. Positions of bridges follow the written chain, without caps; N, C: chain ends. Non-standard residues stand in square brackets, D forms with d. Residues, ends and D or L forms follow the SMILES beside them. Chains are numbered I, II in the order given. Actinocin(9to1) = Cc1c2oc3c(C)ccc(C(=O)[*:1])c3nc-2c(C(=O)[*:2])c(N)c1=O; aThr = C[C@H](O)[C@H](N)C(=O)O; NMeV = CN[C@H](C(=O)O)C(C)C; Sar = CNCC(=O)O

As for `CN(Cc1cnc2nc(N)nc(N)c2n1)c1ccc(C(=O)N[C@@H](CCC(=O)O)C(=O)O)cc1`, the T/C reads like this: (dose: 0.19 mg/kg/injection, schedule: Q01DX Z (ip), vehicle: saline) 120 % of control; (dose: 0.38 mg/kg/injection, schedule: Q01DX010 (ip), vehicle: other) 155 % of control and 181 % of control; (dose: 0.38 mg/kg/injection, schedule: Q01DX Z (ip), vehicle: saline) 180 % of control; (dose: 0.75 mg/kg/injection, schedule: Q01DX010 (ip), vehicle: other) 160 % of control and 181 % of control; (dose: 0.75 mg/kg/injection, schedule: Q01DX Z (ip), vehicle: saline) 253 % of control and 361 % of control; (dose: 1.5 mg/kg/injection, schedule: Q01DX010 (ip), vehicle: other) 185 % of control and 256 % of control. The T/C (dose: 3.0 mg/kg/injection, schedule: Q01DX010 (ip), vehicle: other) is 175 % of control.

Turning to `Nc1nc(N)c2nc(CNc3ccc(C(=O)NC(CCC(=O)O)C(=O)O)cc3)cnc2n1` (configuration not stated), the T/C reads like this: (dose: 0.05 mg/kg/injection, schedule: Q01DX010 (ip), vehicle: other) 120 % of control; (dose: 0.1 mg/kg/injection, schedule: Q01DX010 (ip), vehicle: other) 160 % of control and 215 % of control; (dose: 0.2 mg/kg/injection, schedule: Q01DX010 (ip), vehicle: other) 180 % of control and 300 % of control.

Regarding `c1ccc(CCSc2ncnc3nc[nH]c23)cc1`, the T/C under setting [1] is 100 % of control, the T/C under setting [2] is 100 % of control, the T/C under setting [3] is 100 % of control and the T/C under setting [4] is 100 % of control.

Turning to `C#CCN(C)Cc1ccccc1`, the T/C is 88 % of control under setting [5]; 88 % of control under setting [6]; 88 % of control (dose: 200.0 mg/kg/injection, schedule: Q01DX010 (ip), vehicle: saline).

For the compound `CC(=O)O[C@]1(C(C)=O)CC[C@H]2[C@@H]3C[C@H](C)C4=CC(=O)C=C[C@]4(C)[C@@]3(F)[C@@H](O)C[C@@]21C`, the T/C (dose: 12.5 mg/kg/injection, schedule: Q01DX010 (sc), vehicle: steriod suspending solution) is 100 % of control; the T/C (dose: 25.0 mg/kg/injection, schedule: Q01DX010 (sc), vehicle: steriod suspending solution) is 100 % of control; the T/C (dose: 50.0 mg/kg/injection, schedule: Q01DX010 (sc), vehicle: steriod suspending solution) was 111 % of control; the T/C (dose: 100.0 mg/kg/injection, schedule: Q01DX010 (sc), vehicle: steriod suspending solution) is 88 % of control and 100 % of control.

Take `NC(=O)c1ccc(NC(=O)CCC(=O)Nc2ccc(C(N)=O)cn2)nc1`: the T/C is 100 % of control (dose: 0.63 mg/kg/injection, schedule: Q01DX010 (ip), vehicle: saline); 110 % of control (dose: 1.25 mg/kg/injection, schedule: Q01DX010 (ip), vehicle: saline); 110 % of control under setting [7]; 100 % of control under setting [8].

For the compound `CCN(CC)C(=S)S`, the T/C was 87 % of control under setting [2], 87 % of control under setting [3], 87 % of control under setting [4] and 93 % of control under setting [9].

For `CCn1cnc2c(=S)nc[nH]c21`, the T/C is, setting by setting: (dose: 15.6 mg/kg/injection, schedule: Q01DX010 (ip), vehicle: saline) 100 % of control; (dose: 31.3 mg/kg/injection, schedule: Q01DX010 (ip), vehicle: saline) 88 % of control; under setting [1], 88 % of control; under setting [2], 105 % of control.

Take `CCN(CC)CCNc1ccc(C)c2sc3ccccc3c(=O)c12`: the T/C reads like this: under setting [10], 122 % of control; under setting [6], 105 % of control.

Regarding `O=[n+]1c2c(n([O-])c3ccccc31)-c1cccc3cccc-2c13`, the T/C under setting [11] is 100 % of control; the T/C under setting [12] is 100 % of control; the T/C under setting [13] is 100 % of control; the T/C under setting [10] is 88 % of control and 94 % of control; the T/C under setting [5] is 88 % of control; the T/C under setting [6] is 88 % of control.

With `CCOC(N)=O`, the T/C is, setting by setting: under setting [2], 100 % of control and 121 % of control; under setting [3], 100 % of control and 106 % of control; under setting [9], 87 % of control.

With `Cc1c2oc3c(C)ccc(C(=O)N[C@@H]4C(=O)N[C@H](C(C)C)C(=O)N5CCC[C@H]5C(=O)N(C)CC(=O)N(C)[C@@H](C(C)C)C(=O)O[C@H]4C)c3nc-2c(C(=O)N[C@@H]2C(=O)N[C@H](C(C)C)C(=O)N3CCC[C@H]3C(=O)N(C)CC(=O)N(C)[C@@H](C(C)C)C(=O)O[C@H]2C)c(N)c1=O` (I: [aThr][dV]P[Sar][NMeV] / II: [aThr][dV]P[Sar][NMeV]; ester I:1-I:C, II:1-II:C; linker I:N-II:N via Actinocin(9to1)), the T/C is, setting by setting: (dose: 12.5 micrograms/kg/injection, schedule: Q01DX010 (ip), vehicle: other) 100 % of control and 86 % of control; (dose: 25.0 micrograms/kg/injection, schedule: Q01DX010 (ip), vehicle: other) 95 % of control and 105 % of control; (dose: 50.0 micrograms/kg/injection, schedule: Q01DX010 (ip), vehicle: other) 100 % of control; (dose: 100.0 micrograms/kg/injection, schedule: Q01DX010 (ip), vehicle: other) 100 % of control and 109 % of control.

Consider `N#CCSc1ncnc2nc[nH]c12`, for which the T/C was 87 % of control under setting [14], 93 % of control under setting [15], 93 % of control under setting [16] and 87 % of control under setting [17].

As to `CS(=O)(=O)OCCC(=O)N1CCN(C(=O)CCOS(C)(=O)=O)CC1`, the T/C reads like this: under setting [13], 94 % of control and 116 % of control; under setting [10], 116 % of control; under setting [6], 122 % of control.

For `S=c1nc[nH]c2nc[nH]c12`, the T/C by setting is: (dose: 5.0 mg/kg/injection, schedule: Q01DX010 (ip), vehicle: alkali diluted with saline) 100 % of control; (dose: 5.0 mg/kg/injection, schedule: Q01DX Z (ip), vehicle: saline) 93 % of control; (dose: 10.0 mg/kg/injection, schedule: Q01DX010 (ip), vehicle: alkali diluted with saline) 95 % of control and 118 % of control; (dose: 10.0 mg/kg/injection, schedule: Q01DX Z (ip), vehicle: saline) 93 % of control and 96 % of control; (dose: 20.0 mg/kg/injection, schedule: Q01DX010 (ip), vehicle: alkali diluted with saline) 100 % of control and 112 % of control; (dose: 20.0 mg/kg/injection, schedule: Q01DX Z (ip), vehicle: saline) 90 % of control and 106 % of control. The T/C (dose: 40.0 mg/kg/injection, schedule: Q01DX010 (ip), vehicle: alkali diluted with saline) is 93 % of control and 110 % of control; the T/C (dose: 40.0 mg/kg/injection, schedule: Q01DX Z (ip), vehicle: saline) was 93 % of control and 96 % of control; the T/C (dose: 80.0 mg/kg/injection, schedule: Q01DX010 (ip), vehicle: alkali diluted with saline) was 100 % of control; the T/C (dose: 80.0 mg/kg/injection, schedule: Q01DX Z (ip), vehicle: saline) was 93 % of control and 96 % of control.

As to `NC(Cc1ccc(N(CCCl)CCCl)cc1)C(=O)O` (configuration not stated), the T/C by setting is: under setting [18], 150 % of control; under setting [7], 164 % of control; under setting [8], 164 % of control; under setting [19], 150 % of control; (dose: 10.0 mg/kg/injection, schedule: Q01DX010 (ip), vehicle: saline) 158 % of control; under setting [20], 100 % of control. For the same compound, the T/C (dose: 20.0 mg/kg/injection, schedule: Q01DX010 (ip), vehicle: saline) was 117 % of control.

In the case of `Cc1n[nH]c(=O)[nH]c1=O`, the T/C was 87 % of control under setting [2], 100 % of control under setting [3], 87 % of control under setting [4] and 87 % of control under setting [9].

For `C[N+](C)(C)c1ncnc2nc[nH]c12`, the T/C reads like this: under setting [14], 100 % of control; under setting [15], 116 % of control; under setting [16], 111 % of control; under setting [17], 88 % of control.

Regarding `C=CC(CN1CC1)OC(C)=O` (configuration not stated), the T/C under setting [18] was 90 % of control and 100 % of control; the T/C (dose: 4.0 mg/kg/injection, schedule: Q01DX010 (ip), vehicle: saline) was 95 % of control and 111 % of control; the T/C under setting [19] was 88 % of control and 120 % of control; the T/C under setting [20] is 90 % of control.

Take `C[C@H]1C(=O)O[C@@H]2CCN3CC=C(COC(=O)[C@](C)(O)[C@@]1(C)O)[C@H]23`: the T/C was 111 % of control under setting [11], 100 % of control under setting [12] and 117 % of control under setting [13].
